Experimental data taken from patent publication US12312631B1, “High-throughput multiplexed sensitivity and resistance assay” (SAGEMEDIC CORPORATION, priority 2022, dated 2025).
Read-outs that look alike come from different tables or passages of the source.

Assays:
[1] = 2% to 4% formalin
A549 cells [2] = test: ATP release into extracellular fluid or after lysis buffer, with or without Triton X, after PFA; type: cell-based
Procedure: In a factorial design, the cells were a) treated with 0%, 0.2%, or 1% PFA, and b) treated with or without 0.5% Triton X. ATP was then measured either from the extracellular fluids or within the wells after the use of a cell lysis buffer.
One out of 3 wells were incubated with 0%, 0.2%, and 1% PFA for 15 minutes and PFA was washed out 3 times with PBS. Half of the wells were then treated with 0.5% Triton X for 10 minutes and the other half received no Triton. The extracellular fluid from half of the 0.5% Triton X treated wells was then transferred to another well-plate and ATP was measured using a luciferin/luciferase complex. The other half of the 0.5% Triton X treated wells were first treated with a lysis buffer and then ATP was measured using the same luciferin/luciferase complex.

A549 cells [3] = details: 2% or 4% PFA for 15 min, thoroughly washed out
Procedure: An experiment was therefore conducted to see what if any effect PFA had on cellular ATP content and whether it would still be possible to detect ATP in fixed tissue/cells. Four groups of cells were tested: • Group 1 was not pretreated with PFA (control). • Group 2 was treated with 2% PFA. • Group 3 was pretreated with 2% PFA that was then washed out. • Group 4 was pretreated with 4% PFA that was then washed out.
The experiment was conducted as follows. For each group, A549 cells (Catalog No. CCL-185, ATCC, Manassas, VA, USA) were plated in 96-well plates (200 μl/well) with 8 replicates of 1,000 cells in 50 μl cell culture medium per well (DMEM/F12 plus 10% human serum). Cells in group 1, the control group, was not treated with PFA. Cells in groups 2, 3, and 4 were incubated for 15 min. with 2%, 2%, and 4% PFA, respectively. PFA remained in the wells of group 2 and PFA was removed from groups 3 and 4 by washing 3 times with 100 μl Cell culture medium. Luciferase catalyzed ATP luminescence was measured as per CellTiter-Glo 3D manufacturer's instructions.
Luminescence was measured with a BioTek Synergy LX plate reader (Agilent, Santa Clara, CA, U.S.A.) and calculations were performed to quantify, measure, and/or correlate ATP level with cell viability.
We also used relative luminescence unit (RLU) as arbitrary units to calculate ATP level to cell viability.

A549 cells [4] = test system: A549 cells
Procedure: Furthermore, since serum contains proteins, we wanted to know whether incubating and washing with serum could neutralize any potentially residual effect of PFA on ATP measurements. Thus, we created a 4×4 factorial design to expose the cells with 0.0625%, 0.25%, 1%, or 4% of PFA and 0%, 1%, 5%, or 25% of human serum.
For this experiment, A549 cells were plated in 96-well plates with 4 replicates of in 100 μl per well (cell culture medium was DMEM/F12 plus 10% human serum). Cells were fixed with the PFA concentrations for 5 min and washed 3× with phosphate-buffered saline (PBS).
The cells were then incubated at various serum concentrations for 10 min and then washed twice with PBS. Finally, luciferase catalyzed ATP luminescence was measured as per manufacturer's instructions.

luciferase = test system: luciferase
Procedure: We assessed four groups of A549 cells: with 0.0625% PFA, 0.25% PFA, 1% PFA, and 4% PFA, each of them at 0%, 1%, 5%, or 25% of human serum. For each group, A549 cells were plated in 96 well plates with 4 replicates of 1,000 cells at 100 μl per well. The cell culture medium was DMEM/F12 plus 10% human serum. Luciferase-catalyzed ATP luminescence was then measured using the CellTiter-Glo assay per manufacturer's instructions.
A combination of PFA and serum mixture was then created using a 4×4 factorial design of 0.0625%, 0.25%, 1%, or 4% of PFA, and 0%, 1%, 5%, or 25% of human serum, and incubated for 15 min at room temperature. The mixture was then added to the wells and a second round of RLU measurements were taken within 5 min.

C=O [formalin]
ATP still detectable in lysed cells after fixation [1]: almost half

Triton X
ATP release (A549 cells [2]; 0.5% Triton X alone for 10 minutes, no PFA, RLUs similar to lysis buffer): complete ATP release

paraformaldehyde [PFA]
ATP luminescence compared with the control group (A549 cells [3]): less than half of the control group
RLU (ATP luminescence) Avg. (A549 cells [4]; PFA 0.06%, average over serum levels): 47,729 RLU
RLU (ATP luminescence) (A549 cells [4]; PFA 0.06%, serum 0%): 39,815 RLU
RLU (ATP luminescence) (A549 cells [4]; PFA 0.06%, serum 1%): 46,022 RLU
RLU (ATP luminescence) (A549 cells [4]; PFA 0.06%, serum 5%): 51,674 RLU
RLU (ATP luminescence) (A549 cells [4]; PFA 0.06%, serum 25%): 53,405 RLU
RLU (ATP luminescence) Avg. (A549 cells [4]; PFA 0.25%, average over serum levels): 58,470 RLU
RLU (ATP luminescence) (A549 cells [4]; PFA 0.25%, serum 0%): 44,249 RLU
RLU (ATP luminescence) (A549 cells [4]; PFA 0.25%, serum 1%): 61,899 RLU
RLU (ATP luminescence) (A549 cells [4]; PFA 0.25%, serum 5%): 59,651 RLU
RLU (ATP luminescence) (A549 cells [4]; PFA 0.25%, serum 25%): 68,082 RLU
RLU (ATP luminescence) Avg. (A549 cells [4]; PFA 1%, average over serum levels): 40,598 RLU
RLU (ATP luminescence) (A549 cells [4]; PFA 1%, serum 0%): 38,892 RLU
RLU (ATP luminescence) (A549 cells [4]; PFA 1%, serum 1%): 45,576 RLU
RLU (ATP luminescence) (A549 cells [4]; PFA 1%, serum 5%): 34,194 RLU
RLU (ATP luminescence) (A549 cells [4]; PFA 1%, serum 25%): 43,731 RLU
RLU (ATP luminescence) Avg. (A549 cells [4]; PFA 4%, average over serum levels): 26,464 RLU
RLU (ATP luminescence) (A549 cells [4]; PFA 4%, serum 0%): 22,097 RLU
RLU (ATP luminescence) (A549 cells [4]; PFA 4%, serum 1%): 34,860 RLU
RLU (ATP luminescence) (A549 cells [4]; PFA 4%, serum 5%): 23,912 RLU
RLU (ATP luminescence) (A549 cells [4]; PFA 4%, serum 25%): 24,987 RLU
RLU (ATP luminescence) Avg. (A549 cells [4]; average over PFA concentrations, serum 0%): 36,263 RLU
RLU (ATP luminescence) Avg. (A549 cells [4]; average over PFA concentrations, serum 1%): 47,089 RLU
RLU (ATP luminescence) Avg. (A549 cells [4]; average over PFA concentrations, serum 5%): 42,358 RLU
RLU (ATP luminescence) Avg. (A549 cells [4]; average over PFA concentrations, serum 25%): 47,551 RLU
RLU (ATP luminescence) Avg. (A549 cells [4]; average over all PFA concentrations and serum levels): 43,315 RLU
ATP released into the extracellular fluid (A549 cells [2]; 0.2% and 1% PFA, then 0.5% Triton X, same effect after cell lysis buffer): inhibited in a dose-dependent manner
ATP leakage into the extracellular fluid (A549 cells [2]; 0.2% or 1% PFA, without Triton X): neither 0.2% nor 1% PFA lead to some ATP leakage
luciferase activity blocked (luciferase; 1% PFA): about 90%
luciferase activity blocked (luciferase; 4% PFA): almost completely blocked
change of RLUs (luciferase; up to 0.25% PFA added to the CellTiter-Glo solution): did not change the RLUs
